Some test systems named below: M19-MEL melanoma; LXFL 529 NSCLC; DMS 273 small cell lung; DLD-1 colon; SNB-78 CNS; RXF-631 renal; KM20L2 colon; HOP-18 NSCLC; P388/ADR leukemia; SN12K1 renal; P388 leukemia.
Experiment in all cases: NCI tumour cell line growth inhibition, 48 h

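Interpolation was linear, between the two tested concentrations surrounding the appropriate level; five concentrations were tested over 48 hours in 96-well plates. Definition used: TGI = concentration required for complete inhibition of growth.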 A value given as a limit tells only on which side of the number the result lay.

As to `Cc1ccc(C(=O)N(C2CCCCC2)C2CCCCC2)cc1N=NN(C)C`, the TGI with M19-MEL melanoma is 34 µM; in the assay on LXFL 529 NSCLC it was 27.8 µM; in the assay on DMS 273 small cell lung, 31.4 µM; in the assay on DLD-1 colon it was 28.6 µM; in the assay on SNB-78 CNS it was 31.4 µM.

With `COc1cc(OC)c2c(O)cc(CC(C)O)cc2c1` (centres undefined), the TGI in the assay on M19-MEL melanoma, in the assay on LXFL 529 NSCLC, in the assay on RXF-631 renal, in the assay with DMS 273 small cell lung, in the assay with DLD-1 colon and in the assay with SNB-78 CNS was above 100 µM in each case. Further, the TGI in the assay on KM20L2 colon and in the assay with HOP-18 NSCLC was above 100 µM throughout.

Regarding `COC1=CC(=O)c2ccccc2C1(CCC=C(C)C)C1=NC(C)(C)CO1` (centres undefined), the TGI with M19-MEL melanoma, with LXFL 529 NSCLC, in the assay with DMS 273 small cell lung, with DLD-1 colon, in the assay with KM20L2 colon and in the assay with HOP-18 NSCLC was above 100 µM each time.

With `COC(=O)C12Oc3ccc(-c4ccc5c(c4O)C(=O)C4=CCC(C)C(O)C4(C(=O)OC)O5)c(O)c3C(=O)C1=CCC(C)C2O` (centres undefined), the TGI with M19-MEL melanoma was 3.63 µM; in the assay with LXFL 529 NSCLC, 2.65 µM; with RXF-631 renal, 4.81 µM; with DMS 273 small cell lung it was 3.25 µM; in the assay with DLD-1 colon, 2.14 µM; with SNB-78 CNS, 17.4 µM. Besides, the TGI turned out to be 2.93 µM in the assay on KM20L2 colon and 6.56 µM in the assay on HOP-18 NSCLC.

`O=C1C(Br)=CC2([N+](=O)[O-])CCNc3c(O)c4c5c(c3C2=C1Br)=NCCC=5C=N4` (centres undefined): the TGI worked out at 2.35 µM with P388/ADR leukemia; 6.92 µM in the assay on DMS 273 small cell lung; 1.49 µM with DLD-1 colon; 14.7 µM in the assay on SN12K1 renal; 1.14 µM in the assay with P388 leukemia; 5.48 µM in the assay on SNB-78 CNS. Besides, the TGI with KM20L2 colon came out at 10.4 µM; in the assay with HOP-18 NSCLC it was 27.5 µM.

On to `CCOC(=O)/C(O)=C1\C(=O)N(C)C(=O)C1c1ccc(OC)c(OC)c1` (centres undefined), for which the TGI is above 100 µM with M19-MEL melanoma; above 31.6 µM with P388/ADR leukemia; above 100 µM in the assay with DMS 273 small cell lung; above 100 µM in the assay with DLD-1 colon; above 100 µM with SN12K1 renal; above 100 µM in the assay on P388 leukemia. Further, the TGI in the assay with SNB-78 CNS, in the assay on KM20L2 colon and in the assay on HOP-18 NSCLC was above 100 µM throughout.

On to `CCCC/C=C1\CCC(CN2CCCCC2)C1=O` (centres undefined), for which the TGI with M19-MEL melanoma is 34.5 µM; with LXFL 529 NSCLC, 3.26 µM; in the assay with RXF-631 renal it was above 65.2 µM; in the assay on DLD-1 colon, 3.25 µM; with SNB-78 CNS it was 27.4 µM; in the assay on KM20L2 colon, 32.9 µM. In addition, the TGI in the assay on HOP-18 NSCLC was 16.8 µM.

For `CCCCOC(=O)CNC(=O)OCCCCC#CC#CCCCCOC(=O)NCC(=O)OCCCC`, the TGI in the assay on M19-MEL melanoma, in the assay on LXFL 529 NSCLC, with DMS 273 small cell lung, with DLD-1 colon, in the assay on SNB-78 CNS and in the assay with KM20L2 colon was above 100 µM in each case. Moreover, the TGI with HOP-18 NSCLC was above 100 µM.

As for `CCCCCc1cc(OC(=O)c2c(O)cc(OC)cc2CCCCC)cc(O)c1C(=O)O`, the TGI in the assay on M19-MEL melanoma was found to be 33.8 µM; with LXFL 529 NSCLC, 30.5 µM; with DMS 273 small cell lung it was 32.4 µM; in the assay with DLD-1 colon, 26.7 µM; in the assay with SNB-78 CNS, 57.6 µM; in the assay with KM20L2 colon it was 33.3 µM.

Source of the values: PubChem BioAssay (NCI).
